Converted amounts (≈) assume the structure as drawn.
Assays:
physchem [1] = conditions: pH 7.4 buffer
physchem [2] = conditions: octan-1-ol/water, pH 7.4, LogD7.4

| SMILES | solubility thermodynamic (physchem [1]) | logD (physchem [2]) |
| --- | --- | --- |
| COc1ccc(Nc2cc(Nc3ccc(OCC(O)CN(C)C)cc3)ncn2)cc1 (centres undefined) | 12 µM (≈ 4.91 µg/mL) | 1.5 |
| CCOC(=O)N1CCN(C(=O)[C@H](Cc2cccc(C(=N)N)c2)NS(=O)(=O)c2c(C(C)C)cc(C(C)C)cc2C(C)C)CC1 | 692 µM (≈ 425 µg/mL) | 1.67 |
| Cc1cc(NC(=O)c2ccccc2)n[nH]1 | 813 µM (≈ 164 µg/mL) | 1.75 |
| Cc1nc(CS(=O)(=O)c2ccc(Cl)cc2)cc(N2CCOCC2)n1 | 224 µM (≈ 82.4 µg/mL) | 1.8 |
| Cc1onc(CO)c1C(=O)Nc1nccs1 | 144 µM (≈ 34.6 µg/mL) | 1.53 |
| O=S(=O)(c1cccc(-c2cn3cccnc3n2)c1)N1CCOCC1 | 39.8 µM (≈ 13.7 µg/mL) | 1.3 |
| CCOC(=O)Cc1csc(NS(=O)(=O)c2ccc(Cl)cc2)n1 | 417 µM (≈ 150 µg/mL) | 1.32 |
| Oc1cc(OCc2ccccc2)ccn1 | 1230 µM (≈ 248 µg/mL) | 1.69 |
| O=C1CN(C(=O)c2ccco2)c2ccccc2N1 | 269 µM (≈ 65.2 µg/mL) | 1.21 |
| CC(=O)c1ccc2[nH]c(-c3cccnc3)cc(=O)c2c1 | 126 µM (≈ 33.3 µg/mL) | 1.41 |
| Cc1nc2nc(-c3cccnc3)nn2c(O)c1Cc1ccccc1 | 29.5 µM (≈ 9.36 µg/mL) | 1.52 |
| COC[C@H](C)Oc1cc(Oc2cc(F)cc(F)c2)cc(C(=O)Nc2ccc(C(=O)O)cn2)c1 | 832 µM (≈ 381 µg/mL) | 1.36 |
| Cc1cc(CCC2CCN(S(=O)(=O)CC3(N(O)C=O)CCOCC3)CC2)c(C)cn1 | 1100 µM (≈ 482 µg/mL) | 1.43 |
| O=CN(O)C1(CS(=O)(=O)N2CCN(c3ccc(F)cc3)CC2)CCC1 | 490 µM (≈ 182 µg/mL) | 1.34 |
| Cc1cn(C[C@H]2CN(c3ccc(C4=CCS(=O)(=O)CC4)c(F)c3)C(=O)O2)nn1 | 372 µM (≈ 151 µg/mL) | 1.25 |
| COc1cc(OC2CCNCC2)ccc1Nc1ncc(Cl)c(-c2cnc3ccccn23)n1 | 30.9 µM (≈ 13.9 µg/mL) | 1.8 |
| CC1CN(C(=O)c2ccccc2)c2ccccc2NC1=O (centres undefined) | 1200 µM (≈ 337 µg/mL) | 1.73 |
| Cc1ccc(NC(=O)c2cccnc2)cc1-n1cnc2ccc(N3CCN(C)CC3)cc2c1=O | 251 µM (≈ 114 µg/mL) | 1.5 |
| CNC(=O)Nc1nc2ccc(-c3cncc(S(=O)(=O)NC(C)(C)C)c3)cn2n1 | 87.1 µM (≈ 35.1 µg/mL) | 1.58 |

| SMILES | solubility thermodynamic (physchem [1]) | logD (physchem [2]) |
| --- | --- | --- |
| COc1cc(OC)nc(-n2ncc(Cl)c(Cl)c2=O)n1 | 70.8 µM (≈ 21.5 µg/mL) | 1.4 |
| CCCSc1nc(Oc2ccc(CC(=O)O)cc2)ccc1C(=O)NC1CCCCC1 | 550 µM (≈ 235 µg/mL) | 1.79 |
| CCCSc1nc(N2CCC(C(=O)O)CC2)ccc1C(=O)NC1CCCCC1 | 309 µM (≈ 125 µg/mL) | 1.6 |
| CS(=O)(=O)c1ccc2[nH]c3c(c2c1)CN(C(=O)[C@@H]1CCCC[C@H]1C(=O)NC1(C#N)CC1)CC3 | 190 µM (≈ 89.3 µg/mL) | 1.5 |
| Cc1nc(C)c(-c2ccc(C34CCC(CC(=O)O)(CC3)CC4)cc2)nc1C(N)=O | 112 µM (≈ 44.1 µg/mL) | 1.6 |
| Cc1nc(C)c(-c2ccc([C@H]3CC[C@H](CCC(=O)O)CC3)cc2)nc1C(N)=O | 200 µM (≈ 76.1 µg/mL) | 1.6 |
| Cc1nc(C)c(-c2ccc([C@H]3CC[C@H](CC(=O)O)CC3)c(Cl)c2)nc1C(N)=O | 209 µM (≈ 84 µg/mL) | 1.8 |
| Cc1nc(C)c(-c2ccc([C@H]3CC[C@@H](CC(=O)O)CC3)c(Cl)c2)nc1C(N)=O | 200 µM (≈ 80.2 µg/mL) | 1.7 |
| CNC(=O)c1cc(-c2nc(N3CCOCC3)cc(C3(S(C)(=O)=O)CC3)n2)c2cc[nH]c2c1 | 46.8 µM (≈ 21.3 µg/mL) | 1.7 |
| CCCNCc1cnc(-c2ccc(C(=O)Nc3ccccc3N)cc2)s1 | 676 µM (≈ 248 µg/mL) | 1.75 |
| CCN(CC)C(=O)Cc1csc(NS(=O)(=O)c2cccc(Cl)c2C)n1 | 40.7 µM (≈ 16.4 µg/mL) | 1.67 |
| CSc1ccc(OCc2ccccc2)c(C(=O)Nc2ccc(C(=O)O)cn2)c1 | 200 µM (≈ 78.7 µg/mL) | 1.6 |
| CC(C)Oc1cc(OCCc2ccsc2)cc(C(=O)Nc2ccc(C(=O)O)cn2)c1 | 33.9 µM (≈ 14.5 µg/mL) | 1.74 |
| CC(C)COc1cc(OC(C)C)cc(C(=O)Nc2ccc(C(=O)O)cn2)c1 | 190 µM (≈ 70.9 µg/mL) | 1.6 |
| CCc1cc(OCc2ccc(-c3ccccc3-c3nnn[nH]3)cc2)c2c(n1)CCCC2 | 23.4 µM (≈ 9.63 µg/mL) | 1.7 |
| NC(=O)Nc1sc(-c2ccc(CNC3CCCC3)cc2)cc1C(N)=O | 479 µM (≈ 172 µg/mL) | 1.22 |
| CC1(C)Oc2ncnc(N)c2N=C1c1ccc([C@H]2CC[C@H](CC(=O)O)CC2)cc1 | 118 µM (≈ 46.4 µg/mL) | 1.32 |
| Nc1nccc(-c2c[nH]c3ccccc23)n1 | 575 µM (≈ 121 µg/mL) | 1.68 |
